Laboratory results reported in PubChem BioAssay (NCI).
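Results reflect a 48-hour exposure of cells in 96-well plates to compound at five concentrations. The concentration for full growth arrest is given as TGI.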

What was measured:
Experiment in all cases: growth of human tumour cells (NCI), 48 h
MDA-MB-231 breast = tested on: MDA-MB-231 breast
MCF7 breast = tested on: MCF7 breast
HOP-62 NSCLC = tested on: HOP-62 NSCLC
COLO 205 colon = tested on: COLO 205 colon
NCI-H23 lung = tested on: NCI-H23 lung
HT29 colon = tested on: HT29 colon
KM12 colon = tested on: KM12 colon
LOX IMVI melanoma = tested on: LOX IMVI melanoma
OVCAR-3 ovarian = tested on: OVCAR-3 ovarian
DU-145 prostate = tested on: DU-145 prostate
EKVX NSCLC = tested on: EKVX NSCLC
HCT-15 colon = tested on: HCT-15 colon
SF-295 CNS = tested on: SF-295 CNS
A498 renal = tested on: A498 renal
UACC-62 melanoma = tested on: UACC-62 melanoma
PC-3 prostate = tested on: PC-3 prostate
U251 CNS = tested on: U251 CNS
MDA-MB-435 = tested on: MDA-MB-435
786-0 renal = tested on: 786-0 renal
K-562 leukemia = tested on: K-562 leukemia
SR leukemia = tested on: SR leukemia
SK-OV-3 ovarian = tested on: SK-OV-3 ovarian
NCI/ADR-RES ovarian = tested on: NCI/ADR-RES ovarian
CCRF-CEM leukemia = tested on: CCRF-CEM leukemia
NCI-H522 lung = tested on: NCI-H522 lung
NCI-H460 lung = tested on: NCI-H460 lung
SK-MEL-28 melanoma = tested on: SK-MEL-28 melanoma
T-47D breast = tested on: T-47D breast
MDA-N = tested on: MDA-N
HCT-116 colon = tested on: HCT-116 colon
RXF 393 renal = tested on: RXF 393 renal
SK-MEL-5 melanoma = tested on: SK-MEL-5 melanoma
SN12C renal = tested on: SN12C renal
HCC-2998 colon = tested on: HCC-2998 colon
RPMI-8226 leukemia = tested on: RPMI-8226 leukemia
MOLT-4 leukemia = tested on: MOLT-4 leukemia
OVCAR-5 ovarian = tested on: OVCAR-5 ovarian
UO-31 renal = tested on: UO-31 renal
SW-620 colon = tested on: SW-620 colon
ACHN renal = tested on: ACHN renal
SK-MEL-2 melanoma = tested on: SK-MEL-2 melanoma
SNB-19 CNS = tested on: SNB-19 CNS
A549 NSCLC = tested on: A549 NSCLC
UACC-257 melanoma = tested on: UACC-257 melanoma
CAKI-1 renal = tested on: CAKI-1 renal
SF-268 CNS = tested on: SF-268 CNS
OVCAR-4 ovarian = tested on: OVCAR-4 ovarian
M14 melanoma = tested on: M14 melanoma
NCI-H226 lung = tested on: NCI-H226 lung
HS 578T breast = tested on: HS 578T breast
HOP-92 NSCLC = tested on: HOP-92 NSCLC
OVCAR-8 ovarian = tested on: OVCAR-8 ovarian
TK-10 renal = tested on: TK-10 renal
SF-539 CNS = tested on: SF-539 CNS
HL-60(TB) leukemia = tested on: HL-60(TB) leukemia
MALME-3M melanoma = tested on: MALME-3M melanoma
IGROV1 ovarian = tested on: IGROV1 ovarian
SNB-75 CNS = tested on: SNB-75 CNS

COc1ccc2cc(C(=O)NCCCNC(=O)c3ccc4c(OC)c(OC)ccc4c3)ccc2c1OC
TGI (MDA-MB-231 breast): > 100 µM
TGI (MCF7 breast): > 100 µM
TGI (HOP-62 NSCLC): > 100 µM
TGI (COLO 205 colon): > 100 µM
TGI (NCI-H23 lung): > 100 µM
TGI (HT29 colon): > 100 µM
TGI (KM12 colon): > 100 µM
TGI (LOX IMVI melanoma): > 100 µM
TGI (OVCAR-3 ovarian): > 100 µM
TGI (DU-145 prostate): > 100 µM
TGI (EKVX NSCLC): > 100 µM
TGI (HCT-15 colon): > 100 µM
TGI (SF-295 CNS): > 100 µM
TGI (A498 renal): > 100 µM
TGI (UACC-62 melanoma): > 100 µM
TGI (PC-3 prostate): > 100 µM
TGI (U251 CNS): > 100 µM
TGI (MDA-MB-435): > 100 µM
TGI (786-0 renal): > 100 µM
TGI (K-562 leukemia): > 100 µM
TGI (SR leukemia): > 100 µM
TGI (SK-OV-3 ovarian): > 100 µM
TGI (NCI/ADR-RES ovarian): > 100 µM
TGI (CCRF-CEM leukemia): > 100 µM
TGI (NCI-H522 lung): > 100 µM
TGI (NCI-H460 lung): > 100 µM
TGI (SK-MEL-28 melanoma): > 100 µM
TGI (T-47D breast): > 100 µM
TGI (MDA-N): > 100 µM
TGI (HCT-116 colon): > 100 µM
TGI (RXF 393 renal): > 100 µM
TGI (SK-MEL-5 melanoma): > 100 µM
TGI (SN12C renal): > 100 µM
TGI (HCC-2998 colon): > 100 µM
TGI (RPMI-8226 leukemia): > 100 µM
TGI (MOLT-4 leukemia): > 100 µM
TGI (OVCAR-5 ovarian): > 100 µM
TGI (UO-31 renal): > 100 µM
TGI (SW-620 colon): > 100 µM
TGI (ACHN renal): > 100 µM
TGI (SK-MEL-2 melanoma): > 100 µM
TGI (SNB-19 CNS): > 100 µM
TGI (A549 NSCLC): > 100 µM
TGI (UACC-257 melanoma): > 100 µM
TGI (CAKI-1 renal): > 100 µM
TGI (SF-268 CNS): > 100 µM
TGI (OVCAR-4 ovarian): > 100 µM

Nc1nc2c(ncn2C2C=CC(COS(N)(=O)=O)C2)c(=O)[nH]1 (configuration not stated)
TGI (MDA-MB-231 breast): > 100 µM
TGI (MCF7 breast): > 100 µM
TGI (HOP-62 NSCLC): > 100 µM
TGI (COLO 205 colon): > 100 µM
TGI (NCI-H23 lung): > 100 µM
TGI (M14 melanoma): > 100 µM
TGI (HT29 colon): > 100 µM
TGI (KM12 colon): > 100 µM
TGI (LOX IMVI melanoma): > 100 µM
TGI (OVCAR-3 ovarian): > 100 µM
TGI (DU-145 prostate): > 100 µM
TGI (EKVX NSCLC): > 100 µM
TGI (HCT-15 colon): > 100 µM
TGI (SF-295 CNS): > 100 µM
TGI (NCI-H226 lung): > 100 µM
TGI (HS 578T breast): > 100 µM
TGI (UACC-62 melanoma): > 100 µM
TGI (HOP-92 NSCLC): > 100 µM
TGI (OVCAR-8 ovarian): > 100 µM
TGI (PC-3 prostate): > 100 µM
TGI (TK-10 renal): > 100 µM
TGI (U251 CNS): > 100 µM
TGI (MDA-MB-435): > 100 µM
TGI (786-0 renal): > 100 µM
TGI (K-562 leukemia): > 100 µM
TGI (SR leukemia): > 100 µM
TGI (SK-OV-3 ovarian): > 100 µM
TGI (SF-539 CNS): > 100 µM
TGI (NCI/ADR-RES ovarian): > 100 µM
TGI (HL-60(TB) leukemia): > 100 µM
TGI (CCRF-CEM leukemia): > 100 µM
TGI (NCI-H460 lung): > 100 µM
TGI (SK-MEL-28 melanoma): > 100 µM
TGI (T-47D breast): > 100 µM
TGI (MDA-N): > 100 µM
TGI (HCT-116 colon): > 100 µM
TGI (RXF 393 renal): > 100 µM
TGI (SK-MEL-5 melanoma): > 100 µM
TGI (SN12C renal): > 100 µM
TGI (HCC-2998 colon): > 100 µM
TGI (MALME-3M melanoma): > 100 µM
TGI (RPMI-8226 leukemia): > 100 µM
TGI (MOLT-4 leukemia): > 100 µM
TGI (OVCAR-5 ovarian): > 100 µM
TGI (UO-31 renal): > 100 µM
TGI (SW-620 colon): > 100 µM
TGI (ACHN renal): > 100 µM
TGI (SK-MEL-2 melanoma): > 100 µM
TGI (SNB-19 CNS): > 100 µM
TGI (A549 NSCLC): > 100 µM
TGI (UACC-257 melanoma): > 100 µM
TGI (CAKI-1 renal): > 100 µM
TGI (IGROV1 ovarian): > 100 µM
TGI (SF-268 CNS): > 100 µM
TGI (SNB-75 CNS): > 100 µM
TGI (OVCAR-4 ovarian): > 100 µM

CCOC(=O)c1c(SCCCN2CCCCC2)n(-c2ccccc2)c(=S)n(-c2ccccc2)c1=O
TGI (MDA-MB-231 breast): 46.1 µM
TGI (MCF7 breast): 37.6 µM
TGI (HOP-62 NSCLC): > 100 µM
TGI (COLO 205 colon): 32 µM
TGI (NCI-H23 lung): 33.9 µM
TGI (M14 melanoma): 31.9 µM
TGI (HT29 colon): 37.5 µM
TGI (KM12 colon): 34 µM
TGI (OVCAR-3 ovarian): 30.4 µM
TGI (DU-145 prostate): 29.9 µM
TGI (EKVX NSCLC): 91.8 µM
TGI (HCT-15 colon): 33.2 µM
TGI (NCI-H226 lung): 34 µM
TGI (A498 renal): 35.6 µM
TGI (HS 578T breast): 46.5 µM
TGI (UACC-62 melanoma): 25.2 µM
TGI (HOP-92 NSCLC): 29.1 µM
TGI (OVCAR-8 ovarian): 33.6 µM
TGI (PC-3 prostate): 30 µM
TGI (TK-10 renal): 34.8 µM
TGI (U251 CNS): 30.5 µM
TGI (MDA-MB-435): 29.7 µM
TGI (786-0 renal): 13.5 µM
TGI (K-562 leukemia): 41.3 µM
TGI (SR leukemia): 67 µM
TGI (SF-539 CNS): 27.9 µM
TGI (HL-60(TB) leukemia): 7.69 µM
TGI (CCRF-CEM leukemia): 49.3 µM
TGI (NCI-H522 lung): 34.9 µM
TGI (SK-MEL-28 melanoma): 31.9 µM
TGI (T-47D breast): 32.6 µM
TGI (MDA-N): 28.5 µM
TGI (HCT-116 colon): 24.8 µM
TGI (RXF 393 renal): 32.2 µM
TGI (SK-MEL-5 melanoma): 30.1 µM
TGI (SN12C renal): 29.7 µM
TGI (HCC-2998 colon): 31.1 µM
TGI (MALME-3M melanoma): 29.8 µM
TGI (RPMI-8226 leukemia): > 100 µM
TGI (MOLT-4 leukemia): 35 µM
TGI (OVCAR-5 ovarian): 34.2 µM
TGI (UO-31 renal): 29.1 µM
TGI (SW-620 colon): 35.4 µM
TGI (ACHN renal): 44.7 µM
TGI (SK-MEL-2 melanoma): 30.9 µM
TGI (SNB-19 CNS): 31.4 µM
TGI (A549 NSCLC): 33.9 µM
TGI (SF-268 CNS): > 100 µM
TGI (OVCAR-4 ovarian): 31.5 µM
